Patent US12649744B2, “N-(pyridin-2-yl)-6,7,8,9-tetrahydro-5h-5,8-epiminocyclohepta[c]pyridine-10-carboxamide derivatives and similar compounds as GPR65 modulators for the treatment of cancer” (PATHIOS THERAPEUTICS LIMITED, priority 2020, dated 2026)

What follows are compounds tested against human recombinant GPR65 (Homo sapiens, UniProt Q8IYL9) (assay: Human GPR65 cAMP HTRF antagonist assay). Conditions: not given.
human recombinant GPR65, sequence (Q8IYL9 whole entry): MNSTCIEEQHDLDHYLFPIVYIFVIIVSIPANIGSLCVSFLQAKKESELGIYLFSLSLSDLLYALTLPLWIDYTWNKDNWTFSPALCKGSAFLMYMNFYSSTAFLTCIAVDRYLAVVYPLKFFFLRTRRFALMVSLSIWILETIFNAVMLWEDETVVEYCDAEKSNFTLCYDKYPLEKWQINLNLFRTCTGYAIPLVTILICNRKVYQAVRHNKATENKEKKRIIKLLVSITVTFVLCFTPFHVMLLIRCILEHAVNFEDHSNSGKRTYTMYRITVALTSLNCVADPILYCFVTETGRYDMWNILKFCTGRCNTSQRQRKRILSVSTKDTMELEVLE
Format: cell-based
Description: The “Human GPR65 cyclic adenosine monophosphate (cAMP) Homogeneous Time Resolved Fluorescence (HTRF) antagonist assay”, or simply “cAMP assay”, as described below, can be used to measure the potency of GPR65 modulators, which is expressed as the concentration of compound required to reduce the increase in cAMP concentration upon GPR65 activation by 50% (i.e. an IC50).
Human GPR65 Cyclic Adenosine Monophosphate (cAMP) Homogeneous Time Resolved Fluorescence (HTRF) Antagonist Assay Procedure
IC50 data was obtained by the following procedure:
1321N1 human astrocytoma cells stably expressing human recombinant GPR65 (1321N1-hrGPR65 cells, EuroscreenFast) were cultured according to the vendor's instructions.
Compounds were tested for their ability to antagonise GPR65, through measuring the concentration of cytoplasmic cAMP following treatment of the cells at a pH of 7.2 to activate GPR65 signalling and addition of the compound to be tested. The extent to which the expected rise in cAMP concentration upon GPR65 activation was suppressed by the added compound is indicative of its potency. The assay was carried out according to EuroscreenFast assay methodology as follows.
On the day of the assay, test compounds were added to 384-well, low volume, white microtiter plates by acoustic dispensing. KRH buffer (5 mM KCl, 1.25 mM MgSO4, 124 mM NaCl, 25 mM HEPES, 13.3 mM Glucose, 1.25 mM KH2PO4 and 1.45 mM CaCl2) was adjusted to pH 6.5, pH 7.6 and pH 8.4 by adding NaOH. 1321N1-hGPR65 cells were rapidly thawed and diluted in KRH, pH 7.6 prior to centrifugation at 300×g for 5 min and resuspension in assay buffer (KRH, pH 7.6, supplemented with 1 mM 3-isobutyl-1-methylxanthine (IBMX) and 200 μM ethylenediaminetetraacetic acid (EDTA)). Cells were added to assay plates at a density of 2,000 cells per well in a volume of 5 μl. Assay plates were briefly centrifuged at 100×g and then incubated at room temperature for 30 min. Cells were stimulated by the addition of 5 μL KRH, pH 6.5, to achieve an assay pH of 7.2, while control wells received 5 μl KRH, pH 8.4 to achieve an assay pH of 7.9. Assay plates were briefly centrifuged at 100×g and then incubated at room temperature for 30 min.
Accumulation of cAMP was detected by cAMP HTRF kit (Cisbio). d2-labeled cAMP and cryptate-labeled anti-cAMP antibody in Lysis and Detection Buffer (Cisbio) were added to assay plates, and the plates were incubated at room temperature for 1 h. HTRF measurements were performed using a Pherastar FSX instrument. Acceptor and donor emission signals were measured at 665 nm and 620 nm, respectively, and HTRF ratios were calculated as signal665 nm/signal620nm×10^4. Data were normalised to high and low control values and fitted with 4-parameter logistic regression to determine hGPR65 IC50 values for the test compounds, which are shown in Table 1.
For O=C(Nc1cncc(Cl)c1)N1C2CCC1c1ccnc(F)c1C2 (racemic) [Compound 9, (±)-N-(5-chloropyridin-3-yl)-1-fluoro-6,7,8,9-tetrahydro-5H-5,8-epiminocyclohepta-[c]pyridine-10-carboxamide], the IC50 was < 500 nM.

Same assay, conditions: 1321N1-hrGPR65 cells, assay pH of 7.2, cAMP HTRF; read-out: hGPR65 IC50
For O=C(Nc1cc(Cl)c(C(F)(F)F)cn1)N1C2CCC1c1cncnc1C2 (racemic) [Compound 28, (±)-N-(4-chloro-5-(trifluoromethyl)pyridin-2-yl)-6,7,8,9-tetrahydro-5H-5,8-epiminocyclo-hepta[d]pyrimidine-10-carboxamide], the IC50 was 500 to 5000 nM. Work on CCc1nnc(NC(=O)N2[C@H]3CC[C@@H]2c2ccnc(F)c2C3)s1 [Compound 26, (5R,8S)-N-(5-ethyl-1,3,4-thiadiazol-2-yl)-1-fluoro-6,7,8,9-tetrahydro-5H-5,8-epiminocyclohepta[c]pyridine-10-carboxamide] yielded an IC50 of 500 to 5000 nM. O=C(Nc1cc(C(F)(F)F)on1)N1[C@H]2CC[C@@H]1c1ccnc(F)c1C2 [Compound 36, (5R,8S)-1-Fluoro-N-(5-(trifluoromethyl)isoxazol-3-yl)-6,7,8,9-tetrahydro-5H-5,8-epiminocyclohepta[c]pyridine-10-carboxamide] was tested, and the IC50 was < 500 nM. For Cn1nc(NC(=O)N2[C@H]3CC[C@@H]2c2ccnc(F)c2C3)c2ccccc21 [Compound 34, (5R,8S)-1-Fluoro-N-(1-methyl-1H-indazol-3-yl)-6,7,8,9-tetrahydro-5H-5,8-epiminocyclohepta[c]pyridine-10-carboxamide], the IC50 was > 5000 nM. In the case of O=C(Nc1cc2cn(C(F)F)nc2cn1)N1[C@H]2CC[C@@H]1c1ccnc(F)c1C2 [Compound 27, (5R,8S)-N-(2-(difluoromethyl)-2H-pyrazolo[3,4-c]pyridin-5-yl)-1-fluoro-6,7,8,9-tetrahydro-5H-5,8-epiminocyclohepta[c]pyridine-10-carboxamide], the IC50 is reported as > 5000 nM. For O=C(Nc1cnc(-c2ccccc2)s1)N1[C@H]2CC[C@@H]1c1ccnc(F)c1C2 [Compound 29, (5R,8S)-1-Fluoro-N-(2-phenylthiazol-5-yl)-6,7,8,9-tetrahydro-5H-5,8-epiminocyclohepta[c]pyridine-10-carboxamide], the IC50 was < 500 nM. With COC(=O)c1cc(NC(=O)N2[C@H]3CC[C@@H]2c2ccnc(F)c2C3)no1 [Compound 51, methyl-3-((5R,8S)-1-fluoro-6,7,8,9-tetrahydro-5H-5,8-epiminocyclohepta[c]pyridine-10-carboxamido)isoxazole-5-carboxylate] the IC50 was 500 to 5000 nM. O=C(Nc1ccc(Oc2ccccc2)nc1)N1C2CCC1c1ccnc(F)c1C2 (racemic) [Compound 8, (±)-1-fluoro-N-(6-phenoxypyridin-3-yl)-6,7,8,9-tetrahydro-5H-5,8-epiminocyclohepta-[c]pyridine-10-carboxamide] was tested, and the IC50 was 500 to 5000 nM. O=C(Nc1nnc(C2CC2)s1)N1[C@H]2CC[C@@H]1c1ccnc(F)c1C2 [Compound 31, (5R,8S)-N-(5-Cyclopropyl-1,3,4-thiadiazol-2-yl)-1-fluoro-6,7,8,9-tetrahydro-5H-5,8-epiminocyclohepta[c]pyridine-10-carboxamide] was tested, and the IC50 was 500 to 5000 nM. For O=C(Nc1nc(Cl)c(Cl)s1)N1[C@H]2CC[C@@H]1c1ccnc(F)c1C2 [Compound 30, (5R,8S)-N-(4,5-Dichlorothiazol-2-yl)-1-fluoro-6,7,8,9-tetrahydro-5H-5,8-epiminocyclohepta[c]pyridine-10-carboxamide], the IC50 was < 500 nM. For O=C(Nc1cc(Cl)c(Cl)cn1)N1[C@H]2CC[C@@H]1c1ccnc(F)c1C2 [Compound 2, (5R,8S)-N-(4,5-dichloropyridin-2-yl)-1-fluoro-6,7,8,9-tetrahydro-5H-5,8-epiminocyclohepta[c]pyridine-10-carboxamide], the IC50 was < 500 nM. Work on Cc1nonc1NC(=O)N1[C@H]2CC[C@@H]1c1ccnc(F)c1C2 [Compound 21, (5R,8S)-1-fluoro-N-(4-methyl-1,2,5-oxadiazol-3-yl)-6,7,8,9-tetrahydro-5H-5,8-epiminocyclohepta[c]pyridine-10-carboxamide] yielded an IC50 of 500 to 5000 nM. Compound O=C(Nc1cc(C(F)(F)F)ncc1F)N1[C@H]2CC[C@@H]1c1c[nH]c(=O)cc1C2 [Compound 14, (6S,9R)-N-(5-fluoro-2-(trifluoromethyl)pyridin-4-yl)-3-oxo-3,5,6,7,8,9-hexahydro-2H-6,9-epiminocyclohepta[c]pyridine-10-carboxamide] has an IC50 of 500 to 5000 nM. O=C(Nc1nc(-c2ccccc2)no1)N1[C@H]2CC[C@@H]1c1ccnc(F)c1C2 [Compound 42, (5R,8S)-1-Fluoro-N-(3-phenyl-1,2,4-oxadiazol-5-yl)-6,7,8,9-tetrahydro-5H-5,8-epiminocyclohepta[c]pyridine-10-carboxamide] was tested, and the IC50 was 500 to 5000 nM. In the case of Cn1nc(NC(=O)N2[C@H]3CC[C@@H]2c2ccnc(F)c2C3)cc1C(F)(F)F [Compound 48, (5R,8S)-1-fluoro-N-(1-methyl-5-(trifluoromethyl)-1H-pyrazol-3-yl)-6,7,8,9-tetrahydro-5H-5,8-epiminocyclohepta[c]pyridine-10-carboxamide], the IC50 is reported as > 5000 nM. With O=C(Nc1cc(Cl)c(C(F)(F)F)cn1)N1[C@H]2CC[C@@H]1c1c[nH]c(=O)cc1C2 [Compound 17, (6S,9R)-N-(4-chloro-5-(trifluoromethyl)pyridin-2-yl)-3-oxo-3,5,6,7,8,9-hexahydro-2H-6,9-epiminocyclohepta[c]pyridine-10-carboxamide] the IC50 was < 500 nM. O=C(Nc1nc(Cl)c(Cl)cc1F)N1[C@H]2CC[C@@H]1c1ccnc(F)c1C2 [Compound 20, (5R,8S)-N-(5,6-dichloro-3-fluoropyridin-2-yl)-1-fluoro-6,7,8,9-tetrahydro-5H-5,8-epiminocyclohepta[c]pyridine-10-carboxamide] gave an IC50 of 500 to 5000 nM. Cc1nnc(NC(=O)N2[C@H]3CC[C@@H]2c2ccnc(F)c2C3)s1 [Compound 43, (5R,8S)-1-Fluoro-N-(5-methyl-1,3,4-thiadiazol-2-yl)-6,7,8,9-tetrahydro-5H-5,8-epiminocyclohepta[c]pyridine-10-carboxamide] was tested, and the IC50 was > 5000 nM. For O=C(Nc1cc(Cl)c(Cl)cn1)N1[C@H]2CC[C@@H]1c1c[nH]c(=O)cc1C2 [Compound 4, (6S,9R)-N-(4,5-dichloropyridin-2-yl)-3-oxo-3,5,6,7,8,9-hexahydro-2H-6,9-epiminocyclo-hepta[c]pyridine-10-carboxamide], the IC50 was < 500 nM. N#Cc1ccc(NC(=O)N2[C@H]3CC[C@@H]2c2ccnc(F)c2C3)nc1C(F)(F)F [Compound 37, (5R,8S)-N-(5-Cyano-6-(trifluoromethyl)pyridin-2-yl)-1-fluoro-6,7,8,9-tetrahydro-5H-5,8-epiminocyclohepta[c]pyridine-10-carboxamide] showed an IC50 of 500 to 5000 nM. For O=C(Nc1cnc(Cl)cc1F)N1[C@H]2CC[C@@H]1c1ccnc(F)c1C2 [Compound 16, (5R,8S)-N-(6-chloro-4-fluoropyridin-3-yl)-1-fluoro-6,7,8,9-tetrahydro-5H-5,8-epiminocyclohepta[c]pyridine-10-carboxamide], the IC50 was 500 to 5000 nM. With O=C(Nc1nnc(-c2ccncc2)s1)N1[C@H]2CC[C@@H]1c1ccnc(F)c1C2 [Compound 24, (5R,8S)-1-fluoro-N-(5-(pyridin-4-yl)-1,3,4-thiadiazol-2-yl)-6,7,8,9-tetrahydro-5H-5,8-epiminocyclohepta[c]pyridine-10-carboxamide] the IC50 was 500 to 5000 nM. In the case of O=C(Nc1ccc(Cl)c(Cl)n1)N1[C@H]2CC[C@@H]1c1ccnc(F)c1C2 [Compound 3, (5R,8S)-N-(5,6-dichloropyridin-2-yl)-1-fluoro-6,7,8,9-tetrahydro-5H-5,8-epiminocyclohepta[c]pyridine-10-carboxamide], the IC50 is reported as 500 to 5000 nM. In the case of O=C(Nc1ccc2nc(C(F)(F)F)ccc2c1)N1[C@H]2CC[C@@H]1c1ccnc(F)c1C2 [Compound 44, (5R,8S)-1-Fluoro-N-(2-(trifluoromethyl)quinolin-6-yl)-6,7,8,9-tetrahydro-5H-5,8-epiminocyclohepta[c]pyridine-10-carboxamide], the IC50 is reported as < 500 nM. O=C(Nc1ccc2nc(C(F)(F)F)ccc2c1)N1[C@H]2CC[C@@H]1c1c[nH]c(=O)cc1C2 [Compound 10, (6S,9R)-3-oxo-N-(2-(trifluoromethyl)quinolin-6-yl)-3,5,6,7,8,9-hexahydro-2H-6,9-epiminocyclohepta[c]pyridine-10-carboxamide] was tested, and the IC50 was < 500 nM.
